In patent US20170266289A1, “TOPICAL FORMULATION” (AbbVie Inc., priority 2014, published 2017):
Where “and” joins values, the source holds several entries; their conditions need not be identical. Equal entries are not always repeated. Where two headings read alike, the source gives them in different places.

Key:
Stability in plasma = assay type: in vitro ADME
Text: Note that, due to the fact that BMS DPP is unstable in the plasma, the total blood concentration of BMS DPP cannot be determined.

[1] = test system: FITC-induced contact hypersensitivity (CHS); experiment: Topical treatment after FITC challenge in FITC-induced contact hypersensitivity, ear skin thickness; assay type: in vivo, mice; conditions: 4 hrs post FITC challenge
Experimental: Briefly, on Day 0, ears of experimental animals were sensitized with FITC. […] Naïve group animals received no treatment during the experiment. On Day 7, about 24 hours post FITC challenge, ear thickness (in mm) of all animals were measured. […]

[2] = test system: FITC-induced contact hypersensitivity (CHS); experiment: Prophylactic topical treatment of FITC-induced contact hypersensitivity, ear skin thickness; assay type: in vivo, mice; conditions: 1 hr prior to FITC challenge
Text: Contact hypersensitivity (CHS) is an immunological response against a small chemical hapten. During the sensitization phase, dermal dendritic cells (DCs) and Langerhans cells take up the hapten peptide conjugate and process it and migrate to the draining lymph node, where they present the antigen (Ag) to naive T cells, leading to the formation of Ag-specific memory T cells. Subsequent contact with the same chemical results in the activation of memory T cells and the recruitment of inflammatory cells to the site of allergen exposure. This elicitation response is manifested as skin inflammation, which in a clinical context is called allergic contact dermatitis. One of the small chemical haptens is FITC. FITC-induced CHS is believed to be predominantly associated with the activation of Th2 cells. Upon challenging the skin with FITC in mice sensitized with FITC, it is believed that FITC-specific T cells are recruited to the skin and produce Th2 cytokines, including IL-4.
Briefly, on Day 0, ears of experimental animals were sensitized with FITC. On Day 6, ears of the treatment group animals (0.01%, 0.1%, and 1% treatment groups) were first provided topical treatment of the subject formulations one hour prior to the FITC challenge. Specifically, 20 μL total (10 μL inner ear, and 10 μL outer ear) of topical treatment were massaged all around the ear of each experimental animals prior to FITC epicutaneous application. […] Naïve group animals received no treatment during the experiment. On Day 7, about 24 hours post FITC challenge, ear thickness (in mm) of all animals were measured.
Betamethasone Dipropionate (BMS DPP) topical cream formulations with different concentrations (0.005%, 0.01%, 0.1%, and 1% w/w) were prepared according to Example 3.

[3] = Plasma PK and skin concentration after topical application of gel-cream to shaved backs of rats; assay type: in vivo; conditions: for Cmax / AUC(0-t): topical or ocular, rat plasma; for Kp at 24 h: skin/plasma
Experimental: In order to assess the effect of the permeation enhancer on API delivery to the skin (topical delivery) and to the plasma (systamic delivery) in vivo, 177.8 mg of the subject topical formulation (177.8 μL of the 1% Compound 1 gel-cream, or about 1.778 mg of Compound 1) was applied to the backs of rats on a 4 cm^2 area of shaved skin. Plasma PK data was obtained during a period of about 24 hours following the topical application. See results in FIG. 9A, and the tables below.
The same experiment was repeated for a topical formulation using Compound 2 as the API. Also see FIG. 9B.

[4] = In vitro release testing in Franz Cells, flux through Tuffryn membrane; assay type: in vitro ADME
Experimental: (§1) Diffusion assays were performed using Franz Cells and […]® plates, with Tuffryn®, polycarbonate, or polyester membranes, as well as hairless mouse skin. HPLC was employed to analyze in vitro samples.
Specifically, for the in vitro release testing in Franz Cells, vertical diffusion cells were filled with receptor media (phosphate buffer with 2% BSA). The receptor media was then agitated, with the exception of setup and sampling. Temperature is maintained at 32.5±2.0° C. Artificial membrane was then placed on the top of the cell, along with a dosage wafer, the formulation to be evaluated, and a glass sealing cap. A formulation permeability test was run in triplicate. Samples were collected at various programmed intervals, and sampling was an automated process by the system. Fresh media was pushed into the bottom of the cell while simultaneous sampling occurs from the top of the cell. All wells were sampled in a serial manner with the time of each sample recorded by the instrument.
(§2) Generally, flux is calculated by determining the amount of solute that diffuses across a membrane of known surface area per unit time. There are many ways to calculate this value. We measured solute concentration in known volumes of receiver media and calculated the total amount that diffused over the time course of the experiment.

[5] = In vitro release testing in […] plates, flux through polycarbonate membrane; assay type: in vitro ADME
Experimental: as §1
(§3) For in vitro release testing in […]® plates, a two-compartment well system was used, with an internal well having a membrane as the formulation compartment, and an outer well filled with receptor media (phosphate buffer with 2% BSA). The TRANS WELL® plates were then agitated in a temperature-controlled incubator with shaker. Samples were manually pulled at pre-determined intervals with a pipette. New media was added to the receptor well after each sampling to make up the volume loss.
as §2

[6] = Optical microscopy examination of the formulations; assay type: physicochemical; conditions: increasing the Transcutol HP content; data not shown
Text: Thus maintaining a saturated solution with the presence of TRANSCUTOL HP™ is expected to increase in vitro flux and increase resultant skin exposures.

[7] = In vitro release testing in […] plates, flux through polyester membrane; assay type: in vitro ADME
Experimental: as §1, §3, §2

[8] = individual rats 1-3, topical 177.8 mg/animal in Formulation A (no Transcutol HP), 24 hr after dose
[9] = individual rats 4-6, topical 177.8 mg/animal in Formulation B (10% Transcutol HP), 24 hr after dose

## CCC(=O)OCC(=O)[C@@]1(OC(=O)CC)[C@@H](C)C[C@H]2[C@@H]3CCC4=CC(=O)C=C[C@]4(C)[C@@]3(F)[C@@H](O)C[C@@]21C [BMS DPP, Betamethasone Dipropionate]
Stability in plasma
  stability in the plasma: unstable
[1]; Study 1, 0.1%
  reduced ear skin thickness: 95%
[1]; Study 1, 1%
  reduced ear skin thickness: 96%
[1]; Study 2, 0.01%
  reduced ear skin thickness: 92%
[1]; Study 2, 0.1%
  reduced ear skin thickness: 96%
[1]; combined Study 1 and 2, 0.01%
  reduced ear skin thickness, effect: 92%
[1]; combined Study 1 and 2, 0.1%
  reduced ear skin thickness, effect: 95%
[1]; combined Study 1 and 2, 1%
  reduced ear skin thickness, effect: 96%
[2]; Study 1, 0.01%
  reduced ear skin thickness: 77%
[2]; Study 1, 0.1%
  reduced ear skin thickness: 93%
[2]; Study 1, 1%
  reduced ear skin thickness: 95%
[2]; Study 2, 0.005%
  reduced ear skin thickness: 61%
[2]; Study 2, 0.01%
  reduced ear skin thickness: 73%
[2]; Study 2, 0.1%
  reduced ear skin thickness: 93%
[2]; combined Study 1 and 2, 0.005%
  reduced ear skin thickness, effect: 61%
[2]; combined Study 1 and 2, 0.01%
  reduced ear skin thickness, effect: 75%
[2]; combined Study 1 and 2, 0.1%
  reduced ear skin thickness, effect: 93%
[2]; combined Study 1 and 2, 1%
  reduced ear skin thickness, effect: 95%

## CC[C@@H]1C[C@H](NS(=O)(=O)C2CC2)C[C@@H]1c1nnc2cnc3[nH]ccc3n12 [Compound 1, N-((1S,3R,4S)-3-ethyl-4-(6H-pyrrolo[2,3-e][1,2,4]triazolo[4,3-a]pyrazin-1-yl)cyclopentyl)cyclopropanesulfonamide]
[3]; rat, plasma, 177.8 mg, 177.8 mg 1% gel-cream topical on 4 cm^2, 10% Transcutol HP
  Cmax: 70.7 ng/mL
[3]; rat, plasma, 177.8 mg, 177.8 mg 1% gel-cream topical on 4 cm^2, no permeation enhancer
  Cmax: 11.4 ng/mL
[3]; rat, plasma, 177.8 mg, 177.8 mg 1% gel-cream topical, 10% Transcutol HP
  AUC(0-t): 392 ng·h/mL
[3]; rat, plasma, 177.8 mg, 177.8 mg 1% gel-cream topical, no permeation enhancer
  AUC(0-t): 62.4 ng·h/mL
[3]; rat, skin, topical, 1.778 mg, rat skin, 177.8 mg 1% gel-cream topical, 10% Transcutol HP, read-out: Skin conc. 24 hr
  concentration at 24 h: 25000 ng/g
[3]; rat, skin, topical, 1.778 mg, rat skin, 177.8 mg 1% gel-cream topical, no permeation enhancer, read-out: Skin conc. 24 hr
  concentration at 24 h: 5340 ng/g
[3]; rat, topical
  Ratio Transcutol HP/no enhancer, Plasma AUC0-t: 6.28
  Ratio Transcutol HP/no enhancer, Skin conc. 24 hr: 4.67
[4]
  Ratio Transcutol HP/no enhancer, Flux Franz Cells Tuffryn membrane: 1.20
[4]; Transcutol 10%
  Flux Franz Cells Tuffryn membrane: 7.64
[4]; no permeation enhancer
  Flux Franz Cells Tuffryn membrane: 6.34
[5]
  Ratio Transcutol HP/no enhancer, Flux TRANSWELL plate Polycarbonate membrane: 1.35
[5]; Transcutol 10%
  Flux TRANSWELL plate Polycarbonate membrane: 11.46
[5]; no permeation enhancer
  Flux TRANSWELL plate Polycarbonate membrane: 8.52
[6]
  amount solubilized in the gel-cream formulation: solubilizes a greater amount
[7]
  Ratio Transcutol HP/no enhancer, Flux TRANSWELL Plate polyester membrane: 1.33
[7]; Transcutol 10%
  Flux TRANSWELL Plate polyester membrane: 5.42
[7]; no permeation enhancer
  Flux TRANSWELL Plate polyester membrane: 4.09

## CC[C@@H]1CN(C(=O)NCC(F)(F)F)C[C@@H]1c1cnc2cnc3[nH]ccc3n12 [Compound 2, (3S,4R)-3-ethyl-4-(3H-imidazo[1,2-a]pyrrolo[2,3-e]pyrazin-8-yl)-N-(2,2,2-trifluoroethyl)pyrrolidine-1-carboxamide]
[3]; [8]
  Plasma Conc.: 0.00 ng/mL
  Skin Conc.: 2393 ng/g and 5908 ng/g and 7728 ng/g
[3]; individual rats 4-6, Formulation B, 24 hr after dose
  Skin/Plasma Ratio: 11076
[3]; [9]
  Plasma Conc.: 4.46 ng/mL and 2.87 ng/mL and 0.00 ng/mL
  Skin Conc.: 31734 ng/g and 16020 ng/g
[3]; rat, plasma, topical, 177.8 mg, mean of rats 1-3, Formulation A, 24 hr after dose, read-out: Plasma Conc., Mean
  concentration at 24 h: 0 ng/mL
[3]; rat, plasma, topical, 177.8 mg, mean of rats 4-6, Formulation B, 24 hr after dose, read-out: Plasma Conc., Mean
  concentration at 24 h: 2.44 ng/mL
[3]; rat, plasma, topical, 177.8 mg/animal, individual rats 1-3, topical 177.8 mg/animal in Formulation A (no Transcutol HP), 24 hr after dose, read-out: Plasma Conc.
  concentration at 24 h: 0 ng/mL
[3]; rat, skin, topical, 177.8 mg, mean of rats 1-3, Formulation A, 24 hr after dose, read-out: Skin Conc., Mean
  concentration at 24 h: 5340 ng/g
[3]; rat, skin, topical, 177.8 mg, mean of rats 4-6, Formulation B, 24 hr after dose, read-out: Skin Conc., Mean
  concentration at 24 h: 25000 ng/g
[3]; rat, skin, topical, 177.8 mg/animal, individual rats 4-6, topical 177.8 mg/animal in Formulation B (10% Transcutol HP), 24 hr after dose, read-out: Skin Conc.
  concentration at 24 h: 27100 ng/g
[3]; rat, topical, 177.8 mg, individual rats 4-6, Formulation B, 24 hr after dose, read-out: Skin/Plasma Ratio
  Kp at 24 h: 6080
[3]; rat, topical, 177.8 mg, mean, Formulation B, 24 hr after dose, read-out: Skin/Plasma Ratio, Mean
  Kp at 24 h: 8580
